{"source": "patent US20170224819A1", "about": "“Therapeutic Combinations of a BTK Inhibitor, a PI3K Inhibitor, a JAK-2 Inhibitor, and/or a CDK 4/6 Inhibitor” (Acerta Pharma B.V., priority 2014, published 2017)", "key": {"[1]": {"system": "chronic lymphocytic leukemia (CLL)", "assay": "Clinical study of Formula (XVIII) in relapsed/refractory CLL"}, "Txk": {"biological_target": "Txk (Homo sapiens, UniProt P42681)", "sequence (P42681 whole entry)": "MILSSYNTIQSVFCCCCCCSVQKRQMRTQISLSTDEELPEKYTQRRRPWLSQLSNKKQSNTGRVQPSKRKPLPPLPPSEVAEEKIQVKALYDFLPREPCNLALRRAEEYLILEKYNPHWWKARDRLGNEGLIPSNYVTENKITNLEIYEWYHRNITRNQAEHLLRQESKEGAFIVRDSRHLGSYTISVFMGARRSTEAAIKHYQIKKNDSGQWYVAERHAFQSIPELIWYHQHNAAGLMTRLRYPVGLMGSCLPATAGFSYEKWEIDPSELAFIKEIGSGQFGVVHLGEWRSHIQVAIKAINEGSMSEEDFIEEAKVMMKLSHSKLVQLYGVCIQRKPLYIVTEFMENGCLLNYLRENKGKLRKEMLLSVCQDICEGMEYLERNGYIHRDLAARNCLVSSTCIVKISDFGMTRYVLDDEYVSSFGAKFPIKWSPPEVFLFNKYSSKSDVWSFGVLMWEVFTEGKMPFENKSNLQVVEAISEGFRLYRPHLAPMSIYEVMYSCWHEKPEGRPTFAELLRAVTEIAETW", "assay": "biochemical"}, "[2]": {"system": "NSCLC (KrasLA2) lung tumors", "assay": "Genetic tumor model of NSCLC (KrasLA2)", "type": "in vivo, mice", "conditions": "15 mg/kg", "source_text": "The model is designed to have sporadic expression in single cells of G12D mutant Kras off its own promoter triggered by spontaneous intrachromosomal recombination. Johnson, et al. Nature 2001, 410, 1111-16. While the mutant Kras protein is expressed in a few cells in all tissues, tumor development is seen only in the lung at high penetrance."}, "BTK": {"biological_target": "T1, BTK (Mus musculus, UniProt P35991)", "T1 construct": "MDSCs were purified from tumor bearing PDA mice; endogenous in cells; host or cells: granulocytic and monocytic MDSCs from tumour-bearing PDA mice", "T1 sequence (P35991 whole entry)": "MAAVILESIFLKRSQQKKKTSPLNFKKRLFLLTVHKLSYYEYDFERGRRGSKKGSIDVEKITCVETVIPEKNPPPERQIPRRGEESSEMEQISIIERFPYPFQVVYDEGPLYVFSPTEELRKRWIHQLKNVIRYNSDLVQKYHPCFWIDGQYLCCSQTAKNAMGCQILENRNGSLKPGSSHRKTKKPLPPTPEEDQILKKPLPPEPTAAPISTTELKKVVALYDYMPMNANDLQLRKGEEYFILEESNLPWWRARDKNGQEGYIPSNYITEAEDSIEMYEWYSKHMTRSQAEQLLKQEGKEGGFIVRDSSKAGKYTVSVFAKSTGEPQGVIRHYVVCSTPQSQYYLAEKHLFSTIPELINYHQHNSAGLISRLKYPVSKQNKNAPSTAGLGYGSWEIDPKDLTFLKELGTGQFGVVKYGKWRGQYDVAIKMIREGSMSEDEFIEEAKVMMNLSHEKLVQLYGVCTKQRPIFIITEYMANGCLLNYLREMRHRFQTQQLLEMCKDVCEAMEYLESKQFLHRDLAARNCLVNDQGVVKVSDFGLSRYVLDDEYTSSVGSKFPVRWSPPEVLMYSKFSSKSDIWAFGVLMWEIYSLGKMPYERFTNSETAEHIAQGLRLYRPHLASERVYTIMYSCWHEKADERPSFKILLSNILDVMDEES", "assay": "Molecular probe assay of irreversible BTK occupancy in MDSCs of tumor bearing PDA mice", "type": "in vivo", "conditions": "15 mg/kg BID, Day 8, 4 hours post dose (N=5)", "source_text": "A molecular probe assay was used to calculate the percent irreversible occupancy of total BTK."}, "NK cells": {"system": "NK cells", "assay": "Antibody-dependent NK cell cytokine (IFN-γ) secretion, ELISA", "type": "cell-based, human", "conditions": "1 μM, HER18 target cells", "quoted_text": "Cytokine secretion was determined as follows. […] NK cells from healthy donors were enriched as described above and then added to the target cells and incubated for 4 hours at 37° C. Triplicate cultures were performed on NK cells from donors. After incubation, supernatants were harvested, centrifuged briefly, and then analyzed for interferon-γ using an enzyme-linked immunosorbent assay (ELISA) (R&D Systems, Minneapolis, Minn., USA)."}, "[3]": {"system": "KPC derived mouse pancreatic cancer cells", "assay": "KPC derived pancreatic cancer cells injected into the pancreas, Formula (XVIII) and/or gemcitabine", "type": "in vivo", "conditions": "15 mg/kg/BID orally", "description": "In this study, KPC derived mouse pancreatic cancer cells (KrasG12D; Trp53R172H; Pdxl-Cre) were injected into the pancreases.\nSingle cell suspensions from tumor samples. Mouse tumor tissue was collected and stored in PBS/0.1% soybean trypsin inhibitor prior to enzymatic dissociation. Samples were finely minced with a scissors and mouse tissue was transferred into DMEM containing 1.0 mg/ml collagenase IV (Gibco), 0.1% soybean trypsin inhibitor, and 50 U/ml DNase (Roche) and incubated at 37° C. for 30 minutes with constant stirring while human tissue was digested in 2.0 mg/ml collagenase IV, 1.0 mg/ml hyluronidase, 0.1% soybean trypsin inhibitor, and 50 U/ml DNase for 45 minutes. Suspensions were filtered through a 100 micron filter and washed with FACS buffer (PBS/0.5% BSA/2.0 mM EDTA) prior to staining. Two million total cells were stained with antibodies as indicated. Intracellular detection of FoxP3 was achieved following permeabilization with BD Perm Buffer III (BD Biosciences) and eBioscience Fix/Perm respectively. Following surface staining, samples were acquired on a BD Fortessa and analyzed using FlowJo (Treestar) software."}, "CYP3A4": {"biological_target": "CYP3A4 (Homo sapiens, UniProt P08684)", "sequence (P08684 whole entry)": "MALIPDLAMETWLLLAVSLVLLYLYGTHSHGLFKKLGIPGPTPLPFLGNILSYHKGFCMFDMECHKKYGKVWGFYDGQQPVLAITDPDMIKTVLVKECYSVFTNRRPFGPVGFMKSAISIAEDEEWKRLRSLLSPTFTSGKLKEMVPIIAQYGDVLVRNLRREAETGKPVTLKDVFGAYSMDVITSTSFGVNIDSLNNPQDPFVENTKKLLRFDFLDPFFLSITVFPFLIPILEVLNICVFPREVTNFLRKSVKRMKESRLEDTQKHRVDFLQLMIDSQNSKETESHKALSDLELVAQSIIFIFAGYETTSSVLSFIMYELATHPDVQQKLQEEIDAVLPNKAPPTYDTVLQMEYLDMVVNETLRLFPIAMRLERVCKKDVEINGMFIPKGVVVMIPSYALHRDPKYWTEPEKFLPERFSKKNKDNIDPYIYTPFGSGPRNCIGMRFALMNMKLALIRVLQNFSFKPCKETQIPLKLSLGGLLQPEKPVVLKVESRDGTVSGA", "assay": "In vitro CYP metabolism and CYP interaction studies", "type": "in vitro ADME"}, "canine B cell lymphoma": {"system": "canine B cell lymphoma", "assay": "Veterinary clinical trial in companion dogs with lymphoma", "type": "in vivo", "description": "Enrollment has completed for Arm 1 and is ongoing for Arm 2.\nIntra-subject dose escalation was allowed. Six of the 11 dogs that initiated at 2.5 or 5 mg/kg once daily were escalated and completed the study with dosages of 10 mg/kg twice daily. Among all the dose cohorts, 8 dogs had shrinkage of target lesions >20%; the best tumor responses were between 45-49% reduction in the sum of target lesions in two dogs."}, "KrasLA2 NSCLC": {"system": "KrasLA2 NSCLC", "assay": "KrasLA2 non-small cell lung cancer (NSCLC) model", "type": "in vivo", "source_text": "FIG. 161 illustrates the dosing schema used with the KrasLA2 non-small cell lung cancer (NSCLC) model.\nFIG. 162 illustrates tumor volume variation from baseline as assessed by microcomputerized tomography (microCT) in the KrasL2 NSCLC model."}, "[4]": {"system": "spontaneous pancreatic tumors (KPC mice)", "assay": "KPC mouse model of advanced pancreatic cancer", "type": "in vivo", "conditions": "for Tumor volume, average: N=6", "description": "The KPC mouse model recapitulates many of the molecular, histopathologic, and clinical features of human disease (Westphalen and Olive, Cancer J. 2012, 18, 502-510). Combination therapy with gemcitabine was also evaluated in this model. Mice were enrolled after identification of spontaneously appearing tumors in the pancreas that were >100 mm^3 (as assessed by high-resolution ultrasonography)."}, "[5]": {"assay": "In vitro metabolism in hepatocytes with 14C-labeled compound", "type": "in vitro ADME, mouse, rat, dog, rabbit, monkey, and human"}, "ID8 ovarian cancer [6]": {"system": "ID8 ovarian cancer", "assay": "ID8 syngeneic orthotropic ovarian cancer murine model", "type": "in vivo, mice", "conditions": "15 mg/kg/BID orally", "source_text": "Human ovarian cancer models, including the ID8 syngeneic orthotropic ovarian cancer model and other animal models, are described in Fong and Kakar, J. Ovarian Res. 2009, 2, 12; Greenaway et al., Gynecol. Oncol. 2008, 108, 385-94; Urzua et al., Tumour Biol. 2005, 26, 236-44; Janat-Amsbury et al., Anticancer Res. 2006, 26, 3223-28; Janat-Amsbury et al., Anticancer Res. 2006, 26, 2785-89. […] The results of the study are shown in FIG. 108, FIG. 109, FIG. 110, FIG. 111, FIG. 112, FIG. 113, FIG. 114, and FIG. 115."}, "ID8 ovarian cancer [7]": {"system": "ID8 ovarian cancer", "assay": "ID8 syngeneic orthotropic ovarian cancer model", "type": "in vivo, mice", "source_text": "FIG. 108 illustrates the effects of vehicle on flux at two timepoints, as a control for comparison with FIG. 109, in the ID8 syngeneic orthotropic ovarian cancer model."}, "[8]": {"system": "GPVI platelet aggregation", "assay": "GPVI platelet aggregation studies", "type": "cell-based", "conditions": "read-out: IC50, GPVI platelet aggregation"}}, "note": "pIC50: −log10 of the molar value.", "data": [{"molecule": "CC#CC(=O)N1CCC[C@H]1c1nc(-c2ccc(C(=O)Nc3ccccn3)cc2)c2c(N)nccn12", "note": "[Formula (XVIII), (S)-4-(8-amino-3-(1-(but-2-ynoyl)pyrrolidin-2-yl)imidazo[1,5-a]pyrazin-1-yl)-N-(pyridin-2-yl)benzamide]", "values": [{"measurement": "PD (progressive disease)", "setting": "[1]; 100 mg QD (N = 8)", "result": "0 (0) n (%)"}, {"measurement": "PD (progressive disease)", "setting": "[1]; 175 mg QD (N = 8)", "result": "0 (0) n (%)"}, {"measurement": "PD (progressive disease)", "setting": "[1]; 250 mg QD (N = 7)", "result": "0 (0) n (%)"}, {"measurement": "PD (progressive disease)", "setting": "[1]; All Cohorts (N = 31)", "result": "0 (0) n (%)"}, {"measurement": "PR (partial response)", "setting": "[1]; All Cohorts (N = 31)", "result": "22 (71) n (%)"}, {"measurement": "PR + L (partial response with lymphocytosis)", "setting": "[1]; All Cohorts (N = 31)", "result": "7 (23) n (%)"}, {"measurement": "Time of treatment at which the median % change in SPD achieved the same status", "setting": "[1]; CLL patients, present study", "result": 7, "unit": "months"}, {"measurement": "PFS (Kaplan-Meier) in comparison to ibrutinib", "setting": "[1]; CLL patients, Log-Rank p-value 0.0206", "result": "An improvement in survival and a reduction in risk"}, {"measurement": "Treatment-related adverse event: Headache", "setting": "[1]; Grade 1/2, All (N = 44)", "result": "7 (16) n (%)"}, {"measurement": "Treatment-related adverse event: Diarrhea", "setting": "[1]; Grade 1, All (N = 44)", "result": "4 (9) n (%)"}, {"measurement": "Dose-limiting toxicities (DLTs)", "setting": "[1]; human, in vivo", "result": "No DLTs were observed"}, {"measurement": "Grade of adverse events", "setting": "[1]; human, in vivo", "result": "only grade 1 AEs were observed"}, {"measurement": "Lymphocytosis", "setting": "[1]; human, in vivo", "result": "A lack of lymphocytosis was observed"}, {"measurement": "Treatment-related adverse event: Increased tendency to bruise", "setting": "[1]; human, in vivo", "result": "6 (14) n (%)"}, {"measurement": "Treatment-related adverse event: Petechiae", "setting": "[1]; human, in vivo", "result": "3 (7) n (%)"}, {"measurement": "Treatment-related serious adverse events (SAEs)", "setting": "[1]; human, in vivo", "result": "No treatment-related serious adverse events (SAEs) were observed"}, {"measurement": "Progression in patients with the 17p deletion", "setting": "[1]; to date", "result": "no 17p patients have progressed"}, {"measurement": "pIC50", "setting": "Txk", "result": 6.54}, {"measurement": "Number of tumors", "setting": "[2]", "result": "fewer overall tumors"}, {"measurement": "Tumor volumes", "setting": "[2]", "result": "significant decrease in tumor volumes versus vehicle"}, {"measurement": "Irreversible BTK occupancy in granulocytic and monocytic MDSCs", "setting": "BTK", "result": "Complete BTK occupancy"}, {"measurement": "Inhibition of trastuzumab-stimulated NK cell cytokine release", "setting": "NK cells", "result": "no inhibitory effect"}, {"measurement": "Tumor burden", "setting": "[3]", "result": "reduction in tumor burden"}, {"measurement": "CYP catalyzed loss of parent drug", "setting": "CYP3A4; in vitro", "result": "metabolized by CYP3A4"}, {"measurement": "CYP drug-drug interaction potential", "setting": "CYP3A4; nonclinical CYP interaction studies", "result": "very unlikely to cause clinical drug-drug interactions"}, {"measurement": "CR by investigator evaluation", "setting": "canine B cell lymphoma", "result": "0/21"}, {"measurement": "immunosuppressive tumor associated TAMs", "setting": "KrasLA2 NSCLC; FIG. 163", "result": "significant reduction"}, {"measurement": "immunosuppressive tumor associated MDSCs", "setting": "KrasLA2 NSCLC; FIG. 164", "result": "significant reduction"}, {"measurement": "immunosuppressive tumor associated Tregs", "setting": "KrasLA2 NSCLC; FIG. 165", "result": "significant reduction"}, {"measurement": "CD8+ cells in tumor tissues", "setting": "[4]; 15 mg/kg BID orally", "result": "significant increase in CD8^+ cells"}, {"measurement": "Immunosuppressive TAMs, MDSCs and Tregs in tumor tissues", "setting": "[4]; 15 mg/kg BID orally", "result": "significantly reduced"}, {"measurement": "Pancreatic cancer growth and animal survival", "setting": "[4]; 15 mg/kg BID orally", "result": "substantially slowed pancreatic cancer growth and increased animal survival"}, {"measurement": "Survival", "setting": "[4]; day 14", "result": "6/6"}, {"measurement": "Survival", "setting": "[4]; day 28", "result": "5/6"}, {"measurement": "Tumor volume, average", "setting": "[4]; day 28, 15 mg/kg BID orally", "result": 272, "unit": "mm^3"}, {"measurement": "Tumor volume, average", "setting": "[4]; predose, 15 mg/kg BID orally", "result": 165, "unit": "mm^3"}, {"measurement": "Unique human metabolite", "setting": "[5]; hepatocytes", "result": "No unique human metabolite was identified"}, {"measurement": "Metabolites in hepatocytes", "setting": "[5]; mouse, rat, dog, rabbit, monkey, and human hepatocytes", "result": "two mono-oxidized metabolites and a glutathione conjugate"}, {"measurement": "CD8+ T cells", "setting": "ID8 ovarian cancer [6]", "result": "increase in CD8^+ T cells"}, {"measurement": "ID8 ovarian cancer growth", "setting": "ID8 ovarian cancer [6]", "result": "impairs ID8 ovarian cancer growth"}, {"measurement": "Immunosuppressive B cells", "setting": "ID8 ovarian cancer [6]", "result": "significant reduction in immunosuppressive B cells"}, {"measurement": "Immunosuppressive tumor-associated lymphocytes", "setting": "ID8 ovarian cancer [6]", "result": "significant reduction in immunosuppressive tumor-associated lymphocytes"}, {"measurement": "Tumor associated Tregs", "setting": "ID8 ovarian cancer [6]", "result": "significant reduction in immunosuppressive tumor associated Tregs"}, {"measurement": "immunosuppressive tumor associated Tregs", "setting": "ID8 ovarian cancer [7]; FIG. 114", "result": "significant reduction"}, {"measurement": "CD8+ T cells", "setting": "ID8 ovarian cancer [7]; FIG. 115", "result": "increase"}, {"measurement": "ID8 ovarian cancer growth", "setting": "ID8 ovarian cancer [7]; syngeneic murine model, in comparison to vehicle, FIG. 111", "result": "impairs"}, {"measurement": "immunosuppressive tumor associated lymphocytes", "setting": "ID8 ovarian cancer [7]; tumor-bearing mice, in comparison to vehicle, FIG. 110", "result": "significant reduction"}, {"measurement": "total B cells", "setting": "ID8 ovarian cancer [7]; tumor-bearing mice, FIG. 112", "result": "significant reduction"}, {"measurement": "B regulatory cells (Bregs)", "setting": "ID8 ovarian cancer [7]; tumor-bearing mice, FIG. 113", "result": "significant reduction"}, {"measurement": "pIC50", "setting": "[8]", "result": 5.94}]}]}
